The text below walks through data of patent US20220152012A1 (The Regents of the University of California, priority 2020, published 2022).

Series [1] concerns human hepatic stellate cells from non-fibrotic subjects. The experiment in a line: Prevention of TGF-β or H2O2-induced collagen production (Sirius Red). It counts as cell-based. As to conditions: inducer alone: H2O2 25 μM or TGF-β 20 ng/mL, 24 h, vs vehicle. How it is done: Hepatic stellate cell fibrosis quantification.
Hepatic stellate cell fibrosis was assessed by measuring collagen content by Sirius Red staining kit.

Series [2] relates to human hepatic stellate cells from normal non-fibrosis subjects. The experiment in a line: ROS (DCFDA) after oxidative stress induced by palmitic acid or H2O2. As to conditions: inducer alone: palmitic acid 0.5 mM or H2O2 25 μM, vs vehicle. It counts as cell-based. How it is done: Reactive Oxygen Species (ROS) quantification. ROS production, as an index of oxidative stress, in stellate cells was measured using DCFDA fluorescence as described previously. In brief, cells were incubated with DCFDA (10 μmol/L) for 30 min.

The conditions of series [3]: cited from earlier work.
The conditions of series [4]: cited from earlier work. The source holds these as a separate data set.
The conditions of series [5]: cited from earlier work. The source holds these as a separate data set.

Like-named read-outs stand apart in the source and are kept apart here.

On to TGF-β, for which the “increase of collagen content” value in series [1] was found to be 233%.
With `OO` [H2O2, hydrogen peroxide], the “induction of stellate cell ROS levels” value in series [2] came out at 5.2 fold. For the same compound, the “increase of collagen content” value in series [1] amounted to 266%.
On to `CCCCCCCCCCCCCCCC(=O)O` [palmitic acid], for which the “induction of stellate cell ROS levels” value in series [2] is given as 3.6 fold.
`O=C(O)c1cccnc1` [niacin, nicotinic acid]: the absorption entry in series [3] (oral amounts of 3-4 grams) is given as “nearly complete”. Besides, the “time of peak plasma levels of free nicotinic acid” value in series [3] (oral dose of 1000 mg of nicotinic acid) is 0.5 to 1 h. Also, the “eliminated by the kidneys as unchanged niacin or nicotinuric acid” value in series [3] (oral pharmacologic dose) is “Approximately 88%”. Besides, the “peak plasma level of nicotinic acid” value in series [3] (single oral dose of 1000 mg nicotinic acid) is 30 µg/mL.
On to `O=C(O[C@H]1[C@H](OC(=O)c2cccnc2)[C@@H](OC(=O)c2cccnc2)[C@H](OC(=O)c2cccnc2)[C@@H](OC(=O)c2cccnc2)[C@H]1OC(=O)c1cccnc1)c1cccnc1` [inositol hexanicotinate], for which the “peak plasma level of nicotinic acid” value in series [4] (1,000 mg of IHN (˜910 mg nicotinic acid equivalent), oral) was 0.2 µg/mL. Further, in series [4] (human serum), the “time for hydrolysis of the ester bonds and release of free nicotinic acid” value is listed as “more than 48 hours”. In series [4] (oral doses of 0.8 to 4.2 g of inositol hexanicotinate, humans), the “time of peak plasma levels of free nicotinic acid” value was 6 to 12 h. In addition, in series [4] (oral), the “gastrointestinal absorption, average of orally ingested dose absorbed” value is given as 70%. Moreover, the tolerability entry in series [5] (in vivo) is on record as “well tolerated”. For the same compound, in series [5] (vs placebo (Keenan 2010)), the management of dyslipidemia result is listed as “no better than placebo”.
